From ChEMBL document CHEMBL5579789, “Azafuramidines as potential anticancer Agents: Pro-apoptotic profile and cell cycle arrest” (Bioorg Med Chem Lett, 2024)
Activity calls are given as the source filed them. No cut-off for these calls is given here.

How the values were obtained:
[1] = test system: U2OS; experiment: Induction of morphological changes in human U2OS cells assessed as appearance of hyper chromatic nuclei at IC50 concentration; type: functional, cell-based
[2] = test system: MCF7; experiment: Induction of morphological changes in human MCF7 cells assessed as appearance of hyper chromatic nuclei at IC50 concentration; type: functional, cell-based
[3] = test system: U2OS; experiment: Induction of morphological changes in human U2OS cells assessed as cell enlargement with vacuolated cytoplasm at IC50 concentration; type: functional, cell-based
[4] = test system: HepG2; experiment: Induction of apoptosis in human HepG2 cells assessed as fold increase in p53 level by Western blot analysis; type: functional
[5] = test system: HepG2; experiment: Induction of morphological changes in human HepG2 cells assessed as appearance of degenerative features at IC50 concentration; type: functional, cell-based
[6] = test system: HepG2; experiment: Induction of morphological changes in human HepG2 cells assessed as appearance of dense nuclei at IC50 concentration; type: functional, cell-based
[7] = test system: U2OS; experiment: Induction of morphological changes in human U2OS cells assessed as cell detachment at IC50 concentration; type: functional, cell-based
[8] = test system: U2OS; experiment: Induction of morphological changes in human U2OS cells assessed as appearance of dense nuclei at IC50 concentration; type: functional, cell-based
[9] = test system: HepG2; experiment: Inhibition of cell migration in human HepG2 cells assessed as wound confluence at IC50 concentration incubated for 24 hrs by scratch wound assay (reference value: 98.01 +/- 0.14 %); type: functional; set-up: scale not given: the % may be the effect or the level left
[10] = test system: HepG2; experiment: Induction of morphological changes in human HepG2 cells assessed as cell detachment at IC50 concentration; type: functional, cell-based
[11] = Inhibition of cell migration in human […] cells at IC50 concentration incubated for 24 hrs relative to control; type: functional
[12] = test system: HepG2; experiment: Inhibition of cell migration in human HepG2 cells assessed as wound confluence at IC50 concentration incubated for 10 hrs by scratch wound assay (reference value: 32.01 +/- 0.67 %); type: functional; set-up: scale not given: the % may be the effect or the level left
[13] = test system: HepG2; experiment: Cell cycle arrest in human HepG2 cells assessed as accumulation of cells at G0/G1 phase at IC50 concentration incubated for 48 hrs by PI staining based flow cytometric analysis (reference value: 58.2 %); type: functional
[14] = test system: MCF7; experiment: Induction of morphological changes in human MCF7 cells assessed as cell detachment at IC50 concentration; type: functional, cell-based
[15] = test system: MCF7; experiment: Induction of morphological changes in human MCF7 cells assessed as appearance of vesicular nuclei at IC50 concentration; type: functional, cell-based
[16] = test system: HepG2; experiment: Antiproliferative activity against human HepG2 cells assessed as change in cell viability at IC50 concentration; type: functional, cell-based
[17] = test system: MCF7; experiment: Antiproliferative activity against human MCF7 cells assessed as inhibition of cell growth; type: functional, cell-based
[18] = test system: U2OS; experiment: Induction of morphological changes in human U2OS cells assessed as appearance of vesicular nuclei at IC50 concentration; type: functional, cell-based
[19] = test system: HepG2; experiment: Induction of apoptosis in human HepG2 cells assessed as fold increase in p27 level by Western blot analysis; type: functional
[20] = test system: HepG2; experiment: Induction of apoptosis in human HepG2 cells assessed as late apoptotic cells at IC50 concentration by annexin V-FITC/7-AAD staining based flow cytometric analysis (reference value: 0.3 %); type: functional
[21] = test system: HepG2; experiment: Cell cycle arrest in human HepG2 cells assessed as accumulation of cells at G2/M phase at IC50 concentration incubated for 48 hrs by PI staining based flow cytometric analysis (reference value: 19.4 %); type: functional
[22] = Cytotoxicity against human WI-38 cells assessed as inhibition of cell growth; type: toxicity, cell-based
[23] = test system: HepG2; experiment: Cell cycle arrest in human HepG2 cells assessed as accumulation of cells at S phase at IC50 concentration incubated for 48 hrs by PI staining based flow cytometric analysis (reference value: 21.0 %); type: functional
[24] = test system: HepG2; experiment: Induction of morphological changes in human HepG2 cells assessed as appearance of vesicular nuclei at IC50 concentration; type: functional, cell-based
[25] = test system: HepG2; experiment: Induction of morphological changes in human HepG2 cells assessed as appearance of hyper chromatic nuclei at IC50 concentration; type: functional, cell-based
[26] = test system: HepG2; experiment: Antiproliferative activity against human HepG2 cells assessed as inhibition of cell growth; type: functional, cell-based
[27] = test system: MCF7; experiment: Induction of morphological changes in human MCF7 cells assessed as appearance of dense nuclei at IC50 concentration; type: functional, cell-based
[28] = test system: HepG2; experiment: Induction of apoptosis in human HepG2 cells assessed as apoptotic cells at IC50 concentration by annexin V-FITC/7-AAD staining based flow cytometric analysis (reference value: 0.28 %); type: functional
[29] = test system: HepG2; experiment: Induction of apoptosis in human HepG2 cells assessed as viable cells at IC50 concentration by annexin V-FITC/7-AAD staining based flow cytometric analysis (reference value: 99.7 %); type: functional
[30] = test system: HepG2; experiment: Inhibition of cell migration in human HepG2 cells assessed as wound confluence at IC50 concentration incubated for 4 hrs by scratch wound assay (reference value: 19.38 +/- 0.12 %); type: functional; set-up: scale not given: the % may be the effect or the level left
[31] = test system: HepG2; experiment: Induction of apoptosis in human HepG2 cells assessed as late apoptotic cells at IC50 concentration by annexin V-FITC/7-AAD staining based flow cytometric analysis (reference value: 0.0 %); type: functional
[32] = test system: U2OS; experiment: Antiproliferative activity against human U2OS cells assessed as change in cell viability at IC50 concentration; type: functional, cell-based
[33] = test system: MCF7; experiment: Induction of morphological changes in human MCF7 cells assessed as cell enlargement with vacuolated cytoplasm at IC50 concentration; type: functional, cell-based
[34] = test system: HepG2; experiment: Induction of apoptosis in human HepG2 cells assessed as early apoptotic cells at IC50 concentration by annexin V-FITC/7-AAD staining based flow cytometric analysis (reference value: 0.0 %); type: functional
[35] = test system: HepG2; experiment: Induction of apoptosis in human HepG2 cells assessed as fold increase in p21 level by Western blot analysis; type: functional
[36] = test system: U2OS; experiment: Antiproliferative activity against human U2OS cells assessed as inhibition of cell growth; type: functional, cell-based
[37] = test system: HepG2; experiment: Induction of morphological changes in human HepG2 cells assessed as cell enlargement with vacuolated cytoplasm at IC50 concentration; type: functional, cell-based
[38] = test system: U2OS; experiment: Induction of morphological changes in human U2OS cells assessed as appearance of degenerative features at IC50 concentration; type: functional, cell-based
[39] = test system: MCF7; experiment: Induction of morphological changes in human MCF7 cells assessed as appearance of degenerative features at IC50 concentration; type: functional, cell-based
[40] = test system: MCF7; experiment: Antiproliferative activity against human MCF7 cells assessed as change in cell viability at IC50 concentration; type: functional, cell-based

Row | IC50 [17] | Structure (SMILES) | Activity [1] | Activity [2] | Activity [3] | fold change (FC) [4] | Activity [5] | Activity [6] | Activity [7] | Activity [8] | Activity [9] | Activity [10] | Activity [12] | Activity [13] | Activity [14] | Activity [15] | Activity [16] | Activity [18] | Activity [20] | Activity [21] | IC50 [22] | other results
1 | 1600 nM | N=C(N)c1ccc(-c2ccc(-c3ccc(F)cc3)o2)nc1 | Active | Active | Active | ~2.5 | Active | Active | Active | Active | 42.09% | Active | 32.89% | 19.4% | Active | Active | Active | Active | 10.6% | 41.4% | 89000 nM | inhibition (INH) [11]: ~55%; fold change (FC) [19]: ~3.1; Activity [23]: 39.1%; Activity [24]: Active; Activity [25]: Active; IC50 [26]: 1060 nM; Activity [27]: Active; Activity [28]: 59.3%; Activity [29]: 41.9%; Activity [30]: 14.07%; Activity [31]: 0.1%; Activity [32]: Active; Activity [33]: Active; Activity [34]: 47.4%; fold change (FC) [35]: ~5; IC50 [36]: 1720 nM; Activity [37]: Active; Activity [38]: Active; Activity [39]: Active; Activity [40]: Active
2 | 1690 nM | N=C(N)c1ccc(-c2ccc(-c3cc(Cl)cc(Cl)c3)o2)nc1 | Active | Active | Active | ~2.5 | Active | Active | Active | Active | 64.83% | Active | 47.49% | 59.6% | Active | Active | Active | Active | 14.3% | 20.6% | 101000 nM | Activity [23]: 19.1%; Activity [24]: Active; Activity [25]: Active; IC50 [26]: 1870 nM; Activity [27]: Active; Activity [28]: 66.1%; Activity [29]: 31.5%; Activity [30]: 14.4%; Activity [31]: 0.1%; Activity [32]: Active; Activity [33]: Active; Activity [34]: 54%; IC50 [36]: 1810 nM; Activity [37]: Active; Activity [38]: Active; Activity [39]: Active; Activity [40]: Active
3 | 1640 nM | N=C(N)c1ccc(-c2ccc(-c3ccc(Cl)cc3)o2)nc1 | Active | Active | Active | ~2.5 | Active | Active | Active | Active | 46.65% | Active | 33.72% | 9.2% | Active | Active | Active | Active | 16.9% | 47.1% | 77000 nM | inhibition (INH) [11]: ~55%; fold change (FC) [19]: ~2.3; Activity [23]: 43.6%; Activity [24]: Active; Activity [25]: Active; IC50 [26]: 1550 nM; Activity [27]: Active; Activity [28]: 70.5%; Activity [29]: 28.7%; Activity [30]: 14.19%; Activity [31]: 0.4%; Activity [32]: Active; Activity [33]: Active; Activity [34]: 54%; fold change (FC) [35]: ~3; IC50 [36]: 1730 nM; Activity [37]: Active; Activity [38]: Active; Activity [39]: Active; Activity [40]: Active
